{"source": "patent US20170172929A1", "about": "“PHARMACEUTICAL COMPOSITION CONTAINING PREGABALIN WITH IMPROVED STABILITY AND METHOD FOR PREPARING SAME” (Yungjin Pharm. Co., Ltd., priority 2014, published 2017)", "key": {"[1]": {"conditions": "cited from earlier work"}, "[2]": {"conditions": "severe conditions (60°C), airtight glass vial, excipient mixed 1:1", "description": "1 g of pregabalin and each 1 g of the excipients given in Table 14 were mixed at room temperature, and the mixture in the form of powder was air-tightened in a glass vial, and this vial was stored under severe conditions (60° C.) for 2 weeks, and then a percentage (%) of lactam related compounds (PRG-Lactam) relative to the main peak was calculated by HPLC. The analysis wavelength was 210 nm, a mixture (0.04 M ammonium phosphate ((NH4)2HPO4) buffer solution:acetonitrile:methanol=84:5:11) containing 5 mM sodium 1-octanesulfonate used as a mobile phase A, and acetonitrile was used as a mobile phase B. The mobile phase A was maintained at 100% for initial 6 minutes, and the m phase A was maintained from 100% to 70% and the mobile phase B was maintained from 0% to 30% for 6˜45 minutes, and then the mobile phase A was maintained at 70% and the mobile phase B was maintained at 0% for 45˜50 minutes. Post time was 10 minutes. A flow rate was adjusted (0.9 min/mL) so that a retention time of pregabalin was about 8 minutes. A column was a stainless steel column having an internal diameter of about 4.6 mm and a length of about 250 mm, packed with 5 μm-octadecylsilyl silica gel for liquid chromatography."}}, "note": "Read-outs that look alike come from different tables or passages of the source.", "data": [{"compound": "CC(C)C[C@H](CN)CC(=O)O", "note": "[Pregabalin, (S)-3-(aminomethyl)-5-methylhexanoic acid]", "values": [{"measurement": "Time to steady-state blood levels", "setting": "[1]; after administration", "value": "24˜48 hours"}, {"measurement": "Average absorption time", "setting": "[1]; in vivo", "value": 6, "unit": "h"}, {"measurement": "Half-life", "setting": "[1]; normal person", "value": "about 6 hours"}, {"measurement": "Time to reach peak blood levels", "setting": "[1]; oral immediate release", "value": "≤ 1.5", "unit": "h"}, {"measurement": "% of Peak area of PRG-Lactam relative to peak area of pregabalin", "setting": "[2]; 0 weeks", "value": 0.074, "unit": "%"}, {"measurement": "% of Peak area of PRG-Lactam relative to peak area of pregabalin", "setting": "[2]; 1 week", "value": 0.196, "unit": "%"}, {"measurement": "% of Peak area of PRG-Lactam relative to peak area of pregabalin", "setting": "[2]; 2 weeks", "value": 0.329, "unit": "%"}]}]}
